In paper PMC8222254, “Self-assembly of an anion receptor with metal-dependent kinase inhibition and potent in vitro anti-cancer properties” (Nature Communications, 2021):
Where “and” joins values, the source holds several entries; their conditions need not be identical. Equal values may be shown once.

Assays:
Assay in all cases: Kinase inhibition screen, cell-free 33P ATP assay at 10 μM
Format in all cases: biochemical
[1] = molecular target: T1, 140 purified human kinases (Homo sapiens, UniProt O43318)
T1 sequence (O43318 1-606): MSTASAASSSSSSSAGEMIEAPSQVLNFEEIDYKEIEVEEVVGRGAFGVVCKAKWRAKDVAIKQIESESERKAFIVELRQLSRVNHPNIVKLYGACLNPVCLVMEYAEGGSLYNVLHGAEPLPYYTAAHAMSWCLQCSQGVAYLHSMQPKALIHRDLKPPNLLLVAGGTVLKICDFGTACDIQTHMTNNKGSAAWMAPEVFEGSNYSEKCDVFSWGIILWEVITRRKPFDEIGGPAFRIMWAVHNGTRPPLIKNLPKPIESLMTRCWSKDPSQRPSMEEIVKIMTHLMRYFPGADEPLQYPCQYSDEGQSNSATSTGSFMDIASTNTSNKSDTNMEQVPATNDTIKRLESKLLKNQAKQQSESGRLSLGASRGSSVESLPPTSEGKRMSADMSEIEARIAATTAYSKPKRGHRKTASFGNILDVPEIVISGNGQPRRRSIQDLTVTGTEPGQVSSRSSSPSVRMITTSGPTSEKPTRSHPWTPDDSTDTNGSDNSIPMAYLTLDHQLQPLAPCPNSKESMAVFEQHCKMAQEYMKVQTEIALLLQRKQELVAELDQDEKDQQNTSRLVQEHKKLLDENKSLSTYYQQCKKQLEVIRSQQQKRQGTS
Method: (§1) [L2Cu3]^6+ and [L2Zn3]^6+ were submitted to the MRC Protein Phosphorylation and Ubiquitination Unit International Centre for Kinase Profiling (University of Dundee) and tested in duplicate (at 10 μM) against a series of 140 purified human kinases in a cell-free kinase assay using ^33P ATP[55],[56]. The kinase gene IDs from the screen were then translated into common IDs (HGNC symbol) using biomaRt package[57],[58] in R[59] and R Studio[60] and used as input to the KinMap programme.

[2] = molecular target: 140 purified human kinases (Homo sapiens, UniProt P11362)
Sequence of 140 purified human kinases (Homo sapiens, UniProt P11362) (P11362 22-822): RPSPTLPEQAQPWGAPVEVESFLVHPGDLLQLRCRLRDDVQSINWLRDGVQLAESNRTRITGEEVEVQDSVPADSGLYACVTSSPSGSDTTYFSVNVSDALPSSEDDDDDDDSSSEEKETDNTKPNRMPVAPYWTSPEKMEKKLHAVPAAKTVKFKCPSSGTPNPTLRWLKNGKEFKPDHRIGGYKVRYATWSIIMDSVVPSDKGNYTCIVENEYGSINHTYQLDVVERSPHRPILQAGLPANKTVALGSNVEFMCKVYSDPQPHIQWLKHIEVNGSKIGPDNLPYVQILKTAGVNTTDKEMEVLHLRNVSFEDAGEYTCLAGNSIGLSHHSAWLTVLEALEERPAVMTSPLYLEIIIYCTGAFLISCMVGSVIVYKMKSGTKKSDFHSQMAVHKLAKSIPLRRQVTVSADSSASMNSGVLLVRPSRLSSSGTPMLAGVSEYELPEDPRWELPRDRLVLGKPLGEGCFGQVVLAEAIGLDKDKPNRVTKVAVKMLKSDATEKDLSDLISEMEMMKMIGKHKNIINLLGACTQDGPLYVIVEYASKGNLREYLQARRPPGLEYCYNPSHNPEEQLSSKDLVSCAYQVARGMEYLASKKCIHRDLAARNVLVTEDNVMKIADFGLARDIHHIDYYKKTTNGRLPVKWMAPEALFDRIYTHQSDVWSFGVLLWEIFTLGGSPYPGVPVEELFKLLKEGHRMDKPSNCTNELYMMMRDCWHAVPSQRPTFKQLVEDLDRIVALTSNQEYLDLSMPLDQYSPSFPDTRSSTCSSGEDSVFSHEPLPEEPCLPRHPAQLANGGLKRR
Method: as §1

[3] = molecular target: 140 purified human kinases (Homo sapiens, UniProt P51617)
Sequence of 140 purified human kinases (Homo sapiens, UniProt P51617) (P51617 whole entry): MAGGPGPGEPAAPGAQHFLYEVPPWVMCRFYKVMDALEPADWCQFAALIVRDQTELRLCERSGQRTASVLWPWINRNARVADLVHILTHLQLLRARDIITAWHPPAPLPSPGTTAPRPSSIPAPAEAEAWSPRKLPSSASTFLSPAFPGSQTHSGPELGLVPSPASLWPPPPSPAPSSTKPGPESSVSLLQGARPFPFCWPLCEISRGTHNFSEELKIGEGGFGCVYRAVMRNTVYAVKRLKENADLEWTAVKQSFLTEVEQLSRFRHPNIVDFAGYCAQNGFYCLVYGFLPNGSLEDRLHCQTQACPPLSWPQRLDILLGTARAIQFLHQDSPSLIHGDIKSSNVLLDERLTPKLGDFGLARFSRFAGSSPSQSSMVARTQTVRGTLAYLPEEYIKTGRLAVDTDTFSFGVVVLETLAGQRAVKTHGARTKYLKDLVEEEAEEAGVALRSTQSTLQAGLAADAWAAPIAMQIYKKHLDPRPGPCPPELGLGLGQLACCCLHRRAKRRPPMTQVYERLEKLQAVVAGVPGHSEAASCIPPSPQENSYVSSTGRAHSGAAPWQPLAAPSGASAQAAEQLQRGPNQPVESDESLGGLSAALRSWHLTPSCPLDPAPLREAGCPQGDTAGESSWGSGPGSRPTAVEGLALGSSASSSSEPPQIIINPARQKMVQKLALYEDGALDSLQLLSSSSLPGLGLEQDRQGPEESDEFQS
Method: as §1

[4] = molecular target: T2, 140 purified human kinases (Homo sapiens, UniProt Q8IYT8)
T2 sequence (Q8IYT8 1-1036): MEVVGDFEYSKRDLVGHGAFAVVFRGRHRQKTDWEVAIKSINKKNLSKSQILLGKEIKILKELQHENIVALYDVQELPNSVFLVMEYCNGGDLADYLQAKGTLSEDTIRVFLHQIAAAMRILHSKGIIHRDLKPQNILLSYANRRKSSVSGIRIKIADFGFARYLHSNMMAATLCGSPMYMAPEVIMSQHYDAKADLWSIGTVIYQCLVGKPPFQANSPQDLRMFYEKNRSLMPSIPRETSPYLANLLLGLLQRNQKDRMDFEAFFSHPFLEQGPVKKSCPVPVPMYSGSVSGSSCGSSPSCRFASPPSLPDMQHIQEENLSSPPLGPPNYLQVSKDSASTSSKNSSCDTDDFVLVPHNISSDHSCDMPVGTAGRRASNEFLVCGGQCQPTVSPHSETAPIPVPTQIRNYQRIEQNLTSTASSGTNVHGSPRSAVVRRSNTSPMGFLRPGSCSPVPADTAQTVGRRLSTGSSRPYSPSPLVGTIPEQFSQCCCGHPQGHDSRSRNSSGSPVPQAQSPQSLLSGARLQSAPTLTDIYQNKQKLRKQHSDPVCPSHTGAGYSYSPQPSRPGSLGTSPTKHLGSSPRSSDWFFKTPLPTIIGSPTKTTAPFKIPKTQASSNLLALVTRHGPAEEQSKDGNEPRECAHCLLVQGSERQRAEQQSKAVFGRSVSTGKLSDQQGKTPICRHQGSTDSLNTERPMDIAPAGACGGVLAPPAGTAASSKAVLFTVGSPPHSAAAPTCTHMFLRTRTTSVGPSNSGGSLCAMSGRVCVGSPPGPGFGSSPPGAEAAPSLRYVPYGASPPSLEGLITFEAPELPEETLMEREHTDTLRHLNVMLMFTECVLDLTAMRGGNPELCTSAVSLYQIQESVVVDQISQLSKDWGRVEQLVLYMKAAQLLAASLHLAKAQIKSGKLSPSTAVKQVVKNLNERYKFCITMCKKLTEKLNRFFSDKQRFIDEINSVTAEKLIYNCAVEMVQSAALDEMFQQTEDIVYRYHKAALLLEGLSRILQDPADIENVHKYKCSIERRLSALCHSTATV
Method: as §1

[5] = molecular target: T3, 140 purified human kinases (Tribolium castaneum, UniProt D6WMX4); details: PINK
T3 sequence (D6WMX4 6-570): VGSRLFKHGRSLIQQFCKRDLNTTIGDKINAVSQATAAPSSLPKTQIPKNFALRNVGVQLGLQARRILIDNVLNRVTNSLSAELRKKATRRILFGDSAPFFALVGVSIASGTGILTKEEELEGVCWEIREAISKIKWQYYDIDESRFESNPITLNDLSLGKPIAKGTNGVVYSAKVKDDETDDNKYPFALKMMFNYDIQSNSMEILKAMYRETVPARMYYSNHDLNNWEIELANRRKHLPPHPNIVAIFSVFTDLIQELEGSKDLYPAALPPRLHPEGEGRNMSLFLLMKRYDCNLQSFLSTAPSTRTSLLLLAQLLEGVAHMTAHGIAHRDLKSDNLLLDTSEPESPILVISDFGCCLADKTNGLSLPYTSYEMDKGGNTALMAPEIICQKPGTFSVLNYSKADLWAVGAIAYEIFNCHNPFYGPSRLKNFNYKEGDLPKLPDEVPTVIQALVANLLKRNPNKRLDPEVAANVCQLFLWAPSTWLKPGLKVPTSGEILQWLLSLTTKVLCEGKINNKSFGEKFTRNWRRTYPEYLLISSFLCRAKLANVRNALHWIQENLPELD
Method: as §1

## [Cu+2].[Cu+2].[Cu+2].c1ccc(-c2csc(NCCN(CCNc3nc(-c4ccccn4)cs3)CCNc3nc(-c4ccccn4)cs3)n2)nc1.c1ccc(-c2csc(NCCN(CCNc3nc(-c4ccccn4)cs3)CCNc3nc(-c4ccccn4)cs3)n2)nc1 [[L2Cu3]6+]
[1]; TAK1
  % Inhibition Run 1: 45.7%
  % Inhibition Run 2: 51.7%
  % Inhibition, Mean: 49%
  mean % activity: 51%
[1]; TAK1, Run 1
  % activity: 54.3%
[1]; TAK1, Run 2
  % activity: 48.3%
[2]; FGF-R1
  % Inhibition Run 1: 63.7%
  % Inhibition Run 2: 61.4%
  % Inhibition, Mean: 63%
  mean % activity: 37%
[2]; FGF-R1, Run 1
  % activity: 36.3%
[2]; FGF-R1, Run 2
  % activity: 38.6%
[3]; IRAK1
  % Inhibition Run 1: 41.6%
  % Inhibition Run 2: 44.4%
  % Inhibition, Mean: 43%
  mean % activity: 57%
[3]; IRAK1, Run 1
  % activity: 58.4%
[3]; IRAK1, Run 2
  % activity: 55.6%
[4]; ULK2
  % Inhibition Run 1: 48%
  % Inhibition Run 2: 52.6%
  % Inhibition, Mean: 50%
  mean % activity: 50%
[4]; ULK2, Run 1
  % activity: 52%
[4]; ULK2, Run 2
  % activity: 47.4%
[5]
  % Inhibition Run 1: 49.3%
  % Inhibition Run 2: 39.6%
  % Inhibition, Mean: 44%
  mean % activity: 56%
[5]; Run 2
  % activity: 60.4%

## CC(=O)[O-].CC(=O)[O-].CC(=O)[O-].CC(=O)[O-].CC(=O)[O-].CC(=O)[O-].[Zn+2].[Zn+2].[Zn+2].c1ccc(-c2csc(NCCN(CCNc3nc(-c4ccccn4)cs3)CCNc3nc(-c4ccccn4)cs3)n2)nc1.c1ccc(-c2csc(NCCN(CCNc3nc(-c4ccccn4)cs3)CCNc3nc(-c4ccccn4)cs3)n2)nc1 [[L2Zn3]6+]
[1]; TAK1
  % Inhibition, Mean: 35%
  % Inhibition, Run 1 / Run 2: 34% and 36%
  mean % activity: 65%
[1]; TAK1, duplicate runs
  % activity: 66% and 64%
[2]; FGF-R1
  % Inhibition, Mean: 82%
  % Inhibition, Run 1 / Run 2: 88% and 76%
  mean % activity: 18%
[2]; FGF-R1, 10 µM
  % Activity inhibition Mean: 81.5%
  % Activity inhibition Run 1: 87%
  % Activity inhibition Run 2: 76%
  % Activity remaining Run 1: 13%
  % Activity remaining Run 2: 24%
[2]; FGF-R1, duplicate runs
  % activity: 13% and 24%
[3]; IRAK1
  % Inhibition, Mean: 11%
  mean % activity: 89%
[3]; IRAK1, duplicate runs
  % activity: 97% and 81%
[4]; ULK2
  % Activation, Mean value: 2%
  % Inhibition, Mean: -2%
  mean % activity: 102%
[4]; ULK2, duplicate runs
  % activity: 95% and 109%
[5]
  % Inhibition, Mean: 5.35%
  % Inhibition, Run 1 / Run 2: 5% and 6%
  mean % activity: 95%
[5]; duplicate runs
  % activity: 95% and 94%
